# Measurements from the supplement of paper PMC10307832.
# Experiments:
# Assay in all cases: relative viability (nuclei count vs DMSO), 5 days (fraction); higher = more cells survive
# QS11 + Foretinib = compound: C1CC2=C(C1)C=C(C=C2)OC3=NC(=C4C(=N3)N(C=N4)CC5=CC=C(C=C5)C6=CC=CC=C6)N[C@@H](CC7=CC=CC=C7)CO [QS11] + COc1cc2c(Oc3ccc(NC(=O)C4(C(=O)Nc5ccc(F)cc5)CC4)cc3F)ccnc2cc1OCCCN1CCOCC1 [Foretinib] (partner 0.25 µM)
# Outline: (§1)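 Relative viability is defined as nuclei in treated wells over nuclei in vehicle wells. Duplicate plates were run and medians reported. Lung cancer cell lines in 1536-well plates were dosed by pin tool one day after seeding, with one drug or with a fixed anchor-drug dose plus five library-drug doses (not always all listed) in √10 steps, and nuclei were counted after 5 days.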
# AZ628 + Foretinib = compound: CC1=C(C=C(C=C1)NC(=O)C2=CC(=CC=C2)C(C)(C)C#N)NC3=CC4=C(C=C3)N=CN(C4=O)C [AZ628] + COc1cc2c(Oc3ccc(NC(=O)C4(C(=O)Nc5ccc(F)cc5)CC4)cc3F)ccnc2cc1OCCCN1CCOCC1 [Foretinib] (partner 0.25 µM)
# Outline: as §1
# [1] = compound: C[As](C)SC[C@H](NC(=O)CC[C@H](N)C(=O)O)C(=O)NCC(=O)O [Darinaparsin] + CC(C)C[C@H](NC(=O)[C@H](Cc1ccccc1)NC(=O)c1cnccn1)B(O)O [Bortezomib] (partner 0.002 µM)
# Outline: as §1
# [2] = compound: C[As](C)SC[C@H](NC(=O)CC[C@H](N)C(=O)O)C(=O)NCC(=O)O [Darinaparsin] + CCNC(=O)c1noc(-c2cc(C(C)C)c(O)cc2O)c1-c1ccc(CN2CCOCC2)cc1 [Luminespib] (partner 0.01 µM)
# Outline: as §1
Cell Line,relative viability (QS11 + Foretinib; first compound 0.08 µM),relative viability (QS11 + Foretinib; first compound 0.253 µM),relative viability (QS11 + Foretinib; first compound 0.8 µM),relative viability (QS11 + Foretinib; first compound 2.53 µM),relative viability (QS11 + Foretinib; first compound 8 µM),relative viability (AZ628 + Foretinib; first compound 0.08 µM),relative viability (AZ628 + Foretinib; first compound 0.253 µM),relative viability (AZ628 + Foretinib; first compound 0.8 µM),relative viability (AZ628 + Foretinib; first compound 2.53 µM),relative viability (AZ628 + Foretinib; first compound 8 µM),relative viability ([1]; first compound 0.08 µM),relative viability ([1]; first compound 0.8 µM),relative viability ([1]; first compound 2.53 µM),relative viability ([1]; first compound 8 µM),relative viability ([2]; first compound 0.08 µM),relative viability ([2]; first compound 0.8 µM),relative viability ([2]; first compound 2.53 µM),relative viability ([2]; first compound 8 µM)
Calu-6,1.04,0.93,0.897,0.953,0.998,0.867,0.726,0.636,0.816,0.142,1.04,0.968,0.949,0.945,,,,
ChaGo-K-1,0.816,0.967,0.971,0.99,0.895,0.962,0.837,0.924,0.916,0.751,1.18,1.07,1.01,0.767,0.692,0.502,0.55,0.786
EBC-1,0.0939,0.0918,0.115,0.11,0.144,0.117,0.11,0.111,0.0929,0.0846,0.473,0.559,0.471,0.507,,,,
EKVX,0.732,0.764,,0.848,1.23,0.724,0.609,0.721,0.847,0.564,1.14,0.96,0.946,1.41,0.872,0.924,0.926,0.962
EMC-BAC-2,1.03,1.02,0.857,0.652,0.622,0.91,0.87,0.871,0.901,0.877,1.2,0.973,0.997,1.2,0.763,1.15,1.16,1.49
EPLC-272H,,0.817,0.64,0.677,0.692,0.671,0.625,0.654,0.581,0.309,1.07,0.969,0.74,0.9,,0.176,0.328,0.191
H3255,0.787,0.864,,0.927,0.93,0.958,0.899,0.78,0.96,0.661,0.794,0.835,0.79,0.945,0.88,0.94,0.807,0.95
HARA,0.841,0.933,,0.944,1.2,0.713,0.898,0.792,0.795,0.392,1.49,1.12,1.06,1.25,1.19,0.684,0.659,0.773
